# Where “and” joins values, the source holds several entries; their conditions need not be identical. Identical values can stand only once. Inconclusive results and toxic doses are left out.
# Test system: P388 leukemia ip, CD2F1 mice, survival T/C
# Assay: NCI In Vivo Anticancer Drug Screen. Data for tumor model P388 Leukemia (intraperitoneal) in CD2F1 (CDF1) mice
# Details: endpoint: median survival time, higher = longer survival
# Procedure: The antitumor activity of compounds was measured in mice bearing transplantable tumors. Survival or tumor size were measured and the results are expressed as the measurement made in the treated group (T) divided by the measurement made in the vehicle treated control group (C). The tumor model used in this assay is P388 Leukemia (intraperitoneal) in CD2F1 (CDF1) mice
# [1] = dose: 50.0 mg/kg/injection, schedule: Q01DX005 (ip), vehicle: Klucel (hydroxypropylcellulose) (HPC)
# [2] = dose: 100.0 mg/kg/injection, schedule: Q01DX005 (ip), vehicle: Klucel (hydroxypropylcellulose) (HPC)
# [3] = dose: 200.0 mg/kg/injection, schedule: Q01DX005 (ip), vehicle: Klucel (hydroxypropylcellulose) (HPC)
# [4] = dose: 60.0 mg/kg/injection, schedule: Q01DX005 (ip), vehicle: saline with Tween-80
# [5] = dose: 120.0 mg/kg/injection, schedule: Q01DX005 (ip), vehicle: saline with Tween-80
# [6] = dose: 50.0 mg/kg/injection, schedule: Q01DX005 (ip), vehicle: saline with Tween-80
# [7] = dose: 100.0 mg/kg/injection, schedule: Q01DX005 (ip), vehicle: saline with Tween-80
# [8] = dose: 200.0 mg/kg/injection, schedule: Q01DX005 (ip), vehicle: saline with Tween-80
# [9] = dose: 25.0 mg/kg/injection, schedule: Q01DX009 (ip), vehicle: saline with Tween-80
# [10] = dose: 100.0 mg/kg/injection, schedule: Q01DX009 (ip), vehicle: Klucel (hydroxypropylcellulose) (HPC)
# [11] = dose: 100.0 mg/kg/injection, schedule: Q04DX003 (ip), vehicle: saline with Tween-80
# [12] = dose: 200.0 mg/kg/injection, schedule: Q01DX009 (ip), vehicle: Klucel (hydroxypropylcellulose) (HPC)
# [13] = dose: 200.0 mg/kg/injection, schedule: Q04DX003 (ip), vehicle: saline with Tween-80
# [14] = dose: 400.0 mg/kg/injection, schedule: Q04DX003 (ip), vehicle: saline with Tween-80
# [15] = dose: 240.0 mg/kg/injection, schedule: Q01DX005 (ip), vehicle: saline with Tween-80
# [16] = dose: 50.0 mg/kg/injection, schedule: Q01DX009 (ip), vehicle: Klucel (hydroxypropylcellulose) (HPC)
smiles,measurement,setting,value
CN(C)C(C)(C#N)C(N)=O (centres undefined),T/C,"dose: 1.56 mg/kg/injection, schedule: Q04DX003 (ip), vehicle: saline",103 % of control and 93 % of control
same,T/C,"dose: 3.12 mg/kg/injection, schedule: Q04DX003 (ip), vehicle: saline",101 % of control
same,T/C,"dose: 6.25 mg/kg/injection, schedule: Q04DX003 (ip), vehicle: saline",100 % of control and 96 % of control and 98 % of control
c1ccc2c(NCCCN3CCN(CCCNc4c5ccccc5nc5ccccc45)CC3)c3ccccc3nc2c1,T/C,"dose: 0.93 mg/kg/injection, schedule: Q01DX005 (ip), vehicle: Klucel (hydroxypropylcellulose) (HPC)",110 % of control
same,T/C,"dose: 1.88 mg/kg/injection, schedule: Q01DX005 (ip), vehicle: Klucel (hydroxypropylcellulose) (HPC)",104 % of control
N#CCCN(CCC#N)P(=O)(N(CCC#N)CCC#N)N(CCC#N)CCC#N,T/C,[1],100 % of control
same,T/C,[2],96 % of control
same,T/C,[3],100 % of control
CCC(=O)OCC(=O)[C@]1(O)Cc2c(O)c3c(c(O)c2[C@@H](OC2CC(N)C(O)C(C)O2)C1)C(=O)c1c(OC)cccc1C3=O (some centres undefined),T/C,"dose: 0.25 mg/kg/injection, schedule: Q01DX009 (ip), vehicle: saline",163 % of control
same,T/C,"dose: 0.5 mg/kg/injection, schedule: Q01DX009 (ip), vehicle: saline sonified",172 % of control
same,T/C,"dose: 0.5 mg/kg/injection, schedule: Q01DX009 (ip), vehicle: saline",174 % of control
same,T/C,"dose: 1.0 mg/kg/injection, schedule: Q01DX009 (ip), vehicle: saline sonified",168 % of control
same,T/C,"dose: 1.0 mg/kg/injection, schedule: Q01DX009 (ip), vehicle: saline",225 % of control
same,T/C,"dose: 2.0 mg/kg/injection, schedule: Q01DX009 (ip), vehicle: saline sonified",172 % of control
same,T/C,"dose: 2.0 mg/kg/injection, schedule: Q01DX009 (ip), vehicle: saline",252 % of control
same,T/C,"dose: 8.0 mg/kg/injection, schedule: Q01DX009 (ip), vehicle: saline",114 % of control
O=C1NC(N(CCCl)CCCl)=NC1(c1ccccc1)c1ccccc1,T/C,"dose: 12.5 mg/kg/injection, schedule: Q04DX002 (ip), vehicle: saline with Tween-80",97 % of control
same,T/C,"dose: 25.0 mg/kg/injection, schedule: Q04DX002 (ip), vehicle: saline with Tween-80",94 % of control
same,T/C,"dose: 50.0 mg/kg/injection, schedule: Q04DX002 (ip), vehicle: saline with Tween-80",94 % of control
same,T/C,"dose: 100.0 mg/kg/injection, schedule: Q04DX002 (ip), vehicle: saline with Tween-80",106 % of control
same,T/C,"dose: 200.0 mg/kg/injection, schedule: Q04DX002 (ip), vehicle: saline with Tween-80",96 % of control
CN(C)CCCN1c2ccccc2CCc2ccccc21,T/C,[4],115 % of control
same,T/C,[5],109 % of control
CC(N)=S=O,T/C,"dose: 15.0 mg/kg/injection, schedule: Q01DX005 (ip), vehicle: saline",112 % of control
same,T/C,"dose: 30.0 mg/kg/injection, schedule: Q01DX005 (ip), vehicle: saline",103 % of control
same,T/C,"dose: 60.0 mg/kg/injection, schedule: Q01DX005 (ip), vehicle: saline",106 % of control and 94 % of control
CCCCOC(=O)C1ON(c2ccc(C=O)cc2)C(c2ccc([N+](=O)[O-])cc2)C1C(=O)OCCCC (centres undefined),T/C,[1],97 % of control
same,T/C,[2],94 % of control
same,T/C,[3],91 % of control
CC(=O)OC1COC2OC1C(OC(C)=O)C2OC(C)=O (centres undefined),T/C,[6],101 % of control
same,T/C,[7],104 % of control
same,T/C,[8],101 % of control
[Cl][Pt+2][Cl].[NH-]c1cccc(F)c1.[NH-]c1cccc(F)c1,T/C,"dose: 3.12 mg/kg/injection, schedule: Q01DX009 (ip), vehicle: Klucel (hydroxypropylcellulose) (HPC)",158 % of control
same,T/C,"dose: 6.25 mg/kg/injection, schedule: Q01DX009 (ip), vehicle: Klucel (hydroxypropylcellulose) (HPC)",155 % of control
CN(C)c1nc(N)nc(Nc2ccc(Br)cc2)c1N=O,T/C,[9],100 % of control
same,T/C,"dose: 50.0 mg/kg/injection, schedule: Q01DX009 (ip), vehicle: saline with Tween-80",91 % of control
same,T/C,[10],113 % of control
same,T/C,"dose: 100.0 mg/kg/injection, schedule: Q01DX009 (ip), vehicle: saline with Tween-80",100 % of control
same,T/C,[11],108 % of control
same,T/C,[12],109 % of control
same,T/C,[13],95 % of control
same,T/C,"dose: 400.0 mg/kg/injection, schedule: Q01DX009 (ip), vehicle: Klucel (hydroxypropylcellulose) (HPC)",95 % of control
same,T/C,[14],95 % of control
CN=c1nc2n3c(cccc3n1)NC(C)=N2,T/C,[4],100 % of control
same,T/C,[5],92 % of control
same,T/C,[15],99 % of control
O=c1c(N=Nc2ccccc2)c[nH]n1-c1ccccc1,T/C,"dose: 62.5 mg/kg/injection, schedule: Q01DX009 (ip), vehicle: saline with Tween-80",97 % of control
same,T/C,"dose: 125.0 mg/kg/injection, schedule: Q01DX009 (ip), vehicle: saline with Tween-80",97 % of control
same,T/C,"dose: 250.0 mg/kg/injection, schedule: Q01DX009 (ip), vehicle: saline with Tween-80",94 % of control
O=C1CN(C2CC2N2CC(=O)NC(=O)C2)CC(=O)N1 (centres undefined),T/C,[11],97 % of control
same,T/C,[13],100 % of control
same,T/C,[14],100 % of control
C[CH2][Sn]([CH2]C)([N](c1ccccn1)c1ccccn1)[N](c1ccccn1)c1ccccn1,T/C,"dose: 1.56 mg/kg/injection, schedule: Q01DX005 (ip), vehicle: Klucel (hydroxypropylcellulose) (HPC)",123 % of control
same,T/C,"dose: 3.12 mg/kg/injection, schedule: Q01DX005 (ip), vehicle: Klucel (hydroxypropylcellulose) (HPC)",119 % of control
same,T/C,"dose: 6.25 mg/kg/injection, schedule: Q01DX005 (ip), vehicle: Klucel (hydroxypropylcellulose) (HPC)",116 % of control and 123 % of control
NSc1ccccn1,T/C,"dose: 25.0 mg/kg/injection, schedule: Q01DX001 (ip), vehicle: Klucel (hydroxypropylcellulose) (HPC)",96 % of control
same,T/C,"dose: 50.0 mg/kg/injection, schedule: Q01DX001 (ip), vehicle: Klucel (hydroxypropylcellulose) (HPC)",96 % of control
same,T/C,"dose: 100.0 mg/kg/injection, schedule: Q01DX001 (ip), vehicle: Klucel (hydroxypropylcellulose) (HPC)",97 % of control
same,T/C,"dose: 100.0 mg/kg/injection, schedule: Q01DX001 (ip), vehicle: saline with Tween-80",102 % of control
O=c1nc(Oc2ccc([N+](=O)[O-])cc2)nc2ccccn12,T/C,[16],99 % of control
same,T/C,[10],87 % of control
same,T/C,[12],87 % of control
CCCCN(CCCC)c1nn[nH]n1,T/C,[1],89 % of control
same,T/C,[2],94 % of control
same,T/C,[3],95 % of control
CC(C)(C)OC(=O)NN(CC(=O)OCc1ccccc1)N=O,T/C,"dose: 12.5 mg/kg/injection, schedule: Q01DX009 (ip), vehicle: other",104 % of control
same,T/C,"dose: 25.0 mg/kg/injection, schedule: Q01DX009 (ip), vehicle: other",97 % of control
same,T/C,"dose: 50.0 mg/kg/injection, schedule: Q01DX009 (ip), vehicle: other",97 % of control
same,T/C,"dose: 100.0 mg/kg/injection, schedule: Q01DX009 (ip), vehicle: other",101 % of control
same,T/C,"dose: 200.0 mg/kg/injection, schedule: Q01DX009 (ip), vehicle: other",97 % of control
N#CC1=C(O)/C(=C\c2ccc(Cl)cc2)N=C1N,T/C,[6],88 % of control
same,T/C,[7],91 % of control
same,T/C,[8],94 % of control
CC(C)(C)c1cc(C(=O)O)c(S)c(C(=O)O)c1,T/C,[16],104 % of control and 109 % of control
same,T/C,[10],102 % of control and 100 % of control
same,T/C,[12],93 % of control
CCCN(CCC)CC(C)O (centres undefined),T/C,"dose: 25.0 mg/kg/injection, schedule: Q01DX009 (ip), vehicle: saline",95 % of control
same,T/C,"dose: 50.0 mg/kg/injection, schedule: Q01DX009 (ip), vehicle: saline",100 % of control
same,T/C,"dose: 100.0 mg/kg/injection, schedule: Q01DX009 (ip), vehicle: saline",95 % of control
CCOC(=O)C1=CC(C)(C)OC1=O,T/C,[4],99 % of control and 106 % of control
same,T/C,[5],110 % of control and 118 % of control
same,T/C,[15],101 % of control and 124 % of control
O=C1C2(Cl)C3(Cl)C4(Cl)C(Cl)(Cl)C5(Cl)[C@]3(Cl)C1(Cl)[C@]5(Cl)C24Cl (some centres undefined),T/C,"dose: 12.5 mg/kg/injection, schedule: Q01DX009 (ip), vehicle: Klucel (hydroxypropylcellulose) (HPC)",110 % of control
same,T/C,"dose: 12.5 mg/kg/injection, schedule: Q01DX009 (ip), vehicle: saline with Tween-80",94 % of control
same,T/C,"dose: 25.0 mg/kg/injection, schedule: Q01DX009 (ip), vehicle: Klucel (hydroxypropylcellulose) (HPC)",112 % of control
same,T/C,[9],87 % of control
NC(=O)c1cc2c(oc1=O)-c1ccccc1N(C=O)C2,T/C,[4],100 % of control
same,T/C,[5],95 % of control
same,T/C,[15],95 % of control
